The values that follow come from patent US8450527B2, “Amine derivative compounds for treating ophthalmic diseases and disorders” (Acucela Inc., priority 2007, dated 2013).

This test concerns the target T1, isomerase (Mus musculus, UniProt Q91ZQ5).
T1 construct: The recovery of 11-cis-retinal after bleaching can be used to estimate the activity of isomerase in vivo; from tissue; host or cells: eye (RPE) of living CD-1 albino male mice
T1 sequence (Q91ZQ5 1-533): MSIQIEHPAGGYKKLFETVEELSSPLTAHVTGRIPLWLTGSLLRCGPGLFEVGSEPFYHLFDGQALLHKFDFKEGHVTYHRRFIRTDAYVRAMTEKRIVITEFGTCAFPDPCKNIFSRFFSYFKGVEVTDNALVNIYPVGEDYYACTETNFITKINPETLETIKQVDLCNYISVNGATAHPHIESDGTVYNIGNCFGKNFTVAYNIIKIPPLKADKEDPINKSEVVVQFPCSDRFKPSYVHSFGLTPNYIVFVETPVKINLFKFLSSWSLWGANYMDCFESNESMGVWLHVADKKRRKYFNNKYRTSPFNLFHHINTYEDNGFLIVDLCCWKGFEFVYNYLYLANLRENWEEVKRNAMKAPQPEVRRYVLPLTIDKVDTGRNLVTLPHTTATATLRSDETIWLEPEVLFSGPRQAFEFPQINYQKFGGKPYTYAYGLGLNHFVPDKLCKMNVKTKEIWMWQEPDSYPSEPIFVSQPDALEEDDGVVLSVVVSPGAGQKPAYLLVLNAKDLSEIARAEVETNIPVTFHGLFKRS
As to the kind of experiment: In vivo murine isomerase assay (recovery of 11-cis-retinal after photobleaching). Details: species or system CD-1 (albino) male mice. Conditions: CD1 male mice, single oral dose 1 mg/kg, photobleaching 4 h post dosing. How it is done: The capability of amine derivative compounds to inhibit isomerase was determined by an in vivo murine isomerase assay. Brief exposure of the eye to intense light (“photobleaching” of the visual pigment or simply “bleaching”) is known to photo-isomerize almost all 11-cis-retinal in the retina. The recovery of 11-cis-retinal after bleaching can be used to estimate the activity of isomerase in vivo.
Delayed recovery, as represented by lower 11-cis-retinal oxime levels, indicates inhibition of isomerization reaction. Procedures were performed essentially as described by Golczak et al., Proc. Natl. Acad. Sci. USA 102:8162-67 (2005). See also Deigner et al., Science, 244: 968-71 (1989); Gollapalli et al., Biochim Biophys Acta. 1651: 93-101 (2003); Parish, et al., Proc. Natl. Acad. Sci. USA, 14609-13 (1998); Radu, et al., Proc Natl Acad Sci USA 101: 5928-33 (2004).
[…] Mice were orally gavaged with the several of the amine derivative compounds described herein. After 1-48 hours in the dark, the mice were exposed to photobleaching of 5,000 lux of white light for 10 minutes. The mice were allowed to recover 2 hours in the dark. The animals were then sacrificed by carbon dioxide inhalation. Retinoids were extracted from the eye and the regeneration of 11-cis-retinal was assessed at various time intervals.
All steps were performed in darkness with minimal redlight illumination (low light darkroom lights and redfiltered flashlights for spot illumination as needed) (see, e.g., Maeda et al., J. Neurochem 85:944-956, 2003; Van Hooser et al., J Biol Chem 277:19173-82, 2002). After the mice were sacrificed, the eyes were immediately removed and placed in liquid nitrogen for storage.
The eyes were placed in 500 μL of bis-tris propane buffer (10 mM, pH ˜7.3) and 20 μL of 0.8M hydroxylamine (pH˜7.3). The eyes were cut up into small pieces with small iris scissors and then thoroughly homogenized at 30000 rpm with a mechanical homogenizer (Polytron PT 1300 D) in the tube until no visible tissue remained. 500 μL of methanol and 500 μL of heptane were added to each tube. The tubes were attached to a vortexer so that the contents were mixed thoroughly for 15 minutes in room temperature. The organic phase was separated from the aqueous phase by centrifugation for 10 min at 13K rpm, 4° C. 240 μL of the solution from the top layer (organic phase) was removed and transferred to clean 300 μl glass inserts in HPLC vials using glass pipette and the vials were crimped shut tightly.
The samples were analyzed on an Agilent 1100 HPLC system with normal phase column: SILICA (Beckman Coutlier, dp 5 μm, […]). The running method has a flow rate of 1.5 ml/min; solvent components are 15% solvent 1 (1% isopropanol in ethyl acetate), and 85% solvent 2 (100% hexanes). Loading volume for each sample is 100 μl; detection wavelength is 360 nm. The area under the curve for 11-cis retinal oxime was calculated by Agilent Chemstation software and was recorded manually. Data processing was performed using Prizm software.
Positive control mice (no compound administered) were sacrificed fully dark-adapted and the eye retinoids analyzed. Light (bleached) control mice (no compound administered) were sacrificed and retinoids isolated and analyzed immediately after light treatment. The animals were orally gavaged with 1 mg/kg compound, then “photo-bleached” (5000 Lux white light for 10 minutes) at 4, 24 and 48 hours after dosing, and returned to darkness to allow recovery of the 11-cis-retinal content of the eyes. Mice were sacrificed 2 hours after bleaching, eyes were enucleated, and retinoid content was analyzed by HPLC.
A dose response in vivo isomerase inhibition study was performed with several of the amine derivative compounds described herein. Six-week old dark-adapted CD-1 (albino) male mice were orally gavaged with 0.03, 0.1, 0.3, 1 and 3 mg/kg of compound in sterile water as solution, and photobleached 4 hours after dosing. […]

`NCCC(O)c1cccc(CCCCCCO)c1` (stereo not drawn) [Example 59, 6-(3-(3-amino-1-hydroxypropyl)phenyl)hexan-1-ol]: the “% Inhibition 1 mg/kg 4 h” value is 14%. As for `CCCC(O)(CCC)CCc1cccc([C@@H](O)CCN)c1` [Example 70, (S)-4-(3-(3-amino-1-hydroxypropyl)phenethyl)heptan-4-ol], the figure is 100%. As for `CCCC(O)(CCC)CCc1cccc([C@H](O)CCN)c1` [Example 71, (R)-4-(3-(3-Amino-1-hydroxypropyl)phenethyl)heptan-4-ol], the figure is 67%; as for `NCCC(O)c1cccc(CCc2ccccc2)c1` (stereo not drawn) [Example 85, 3-amino-1-(3-phenethylphenyl)propan-1-ol], 70%.

With `CC(C)CCCc1cccc(C(O)CCN)c1` (stereo not drawn) [Example 90, 3-amino-1-(3-(4-methylpentyl)phenyl)propan-1-ol], the “% Inhibition 1 mg/kg 4 h” value was found to be 84%. As for `NCCOc1cccc(CCC2CCCCC2O)c1` (stereo not drawn) [Example 99, 2-(3-(2-aminoethoxy)phenethyl)cyclohexanol], the figure is 22%. As for `NCCC(O)c1cccc(CCC2CCCCC2O)c1` (stereo not drawn) [Example 100, 2-(3-(3-amino-1-hydroxypropyl)phenethyl)cyclohexanol], the figure is 9%.

Consider `CCCC(C)(O)CCc1cccc(C(O)CCN)c1` (stereo not drawn) [Example 109, 1-(3-(3-amino-1-hydroxypropyl)phenyl)-3-methylhexan-3-ol], for which the “% Inhibition 1 mg/kg 4 h” value is 79%. The same measure for `NCCC(O)c1cccc(CCC2CCCCO2)c1` (stereo not drawn) [Example 110, 3-amino-1-(3-(2-(tetrahydro-2H-pyran-2-yl)ethyl)phenyl)propan-1-ol]: 61%; for `CCC(O)(CC)CCc1cccc(C(O)CCN)c1` (stereo not drawn) [Example 113, 1-(3-(3-amino-1-hydroxypropyl)phenyl)-3-ethylpentan-3-ol]: 87%; for `CCCC(O)(CCC)CCc1cccc(SCCN)c1` [Example 134, 4-(3-(2-aminoethylthio)phenethyl)heptan-4-ol]: 6%.

In the case of `CCCC(O)(CCC)CCc1cc(C(O)CCN)ccc1F` (stereo not drawn) [Example 140, 4-(5-(3-amino-1-hydroxypropyl)-2-fluorophenethyl)heptan-4-ol], the “% Inhibition 1 mg/kg 4 h” value turned out to be 87%. As for `NCC#Cc1cccc(CS(=O)(=O)C2CCCCC2)c1` [Example 157, 3-(3-(cyclohexylsulfonylmethyl)phenyl)prop-2-yn-1-amine], the figure is 0%.

Regarding `NCCOc1cccc(C(=O)NC2CCCCC2)c1` [Example 164, 3-(2-aminoethoxy)-N-cyclohexylbenzamide], the “% Inhibition 1 mg/kg 4 h” value is listed as 0%. As for `NCCCc1cccc(CCC2CCCCC2O)c1` (stereo not drawn) [Example 187, 2-(3-(3-aminopropyl)phenethyl)cyclohexanol], the figure is 9%.
